Experimental data: patent publication US12631620B2, “Methods of generating organoids for high throughput screening of drugs” (Yissum Research Development Company of the Hebrew …, priority 2019, dated 2026)
Counter-ions that a name gives are not always drawn. Numbered stars: 1 amine (or outer) side, 2 acyl side, 3 side chain; on linkers, the order of the positions; unused ones are H or OH. Bridge positions count the residues as written; N and C are the ends. Square brackets hold non-standard residues; d marks the D form. Peptide text beside a SMILES is read from it. I, II: the chains in the order shown. Actinocin(9to1) = Cc1c2oc3c(C)ccc(C(=O)[*:1])c3nc-2c(C(=O)[*:2])c(N)c1=O; NMeV = CN[C@H](C(=O)O)C(C)C; Sar = CNCC(=O)O

Test system: U87-MG spheroids
Experiment: High throughput kinetic oxygen screen of FDA-approved anticancer drugs on U87-MG micro-tumors with embedded oxygen sensors, 384-well plate
Assay type: cell-based, human
Settings: 5 μM; U87-MG cells embedded in collagen gel or basement membrane gel
Procedure: In general, cells were kept under standard conditions in a humidified incubator at 37° C., under 5% CO2. U87-MG cells (obtained from the American Type Culture Collection (ATCC)) were cultured in Eagle's Minimum Essential Medium (EMEM) (ATCC® 30-2003™) supplemented with 15% (volume/volume) fetal bovine serum (FCS), 100 U/mL penicillin, and 100 μg/mL streptomycin (Sigma-Aldrich). Medium was changed every 2 days and cells were split every 5 days. Patient's specific glioblastoma derived cells (obtained from Cleveland clinic) were cultured in Neurobasal™ Medium (Trademark Serial number: 77137832) minus phenol red (Thermo-Fischer Scientific) supplemented with 1× (volume/volume) B27 minus Vitamin A (Thermo-Fischer Scientific), 10 ng/ml basic fibroblast growth factor (bFGF) 10 ng/ml EGF (epidermal growth factor) (PEPROTECH), 100 U/mL penicillin, 100 μg/mL streptomycin (Sigma-Aldrich) and L-Alanyl-L-Glutamine (Biological Industries). Medium was changed every 3 days and cells were split every 2-3 weeks. Rat retinal capillary endothelial cells (RCECs) were cultured in EGM™-2 Endothelial Cell Growth Medium-2 BulletKit™ (Lonza). Medium was changed every 3 days and cells were split every 6 days.
For tumor organoid formation, cancer cells were cultured to reach the adequate number needed for a 384 well plate. Cells were trypsinized, counted, and centrifuged at 300 g for 5 minutes at 4° C. The pellet was then mixed with 5 mg CPOx-50-RuP oxygen-sensing beads (Colibri Photonics) and resuspended in 800 μl of ice-cold solution of collagen type I (BD Biosciences) or Matrigel® Basement Membrane Matrix, Growth Factor Reduced (GFR) (Corning) for a final seeding density of 25-50×10^6 cells/mL. In some cases, endothelial cells (RCECs) are used in the assembly of the tumor spheroids by mixing them with same or double the number of tumor cells (i.e. 1:1 or 1:2 ratios) before centrifugation. The 800 μl mix was then equally distributed into a PCR strip (100 μl/tube) and passed to a Biomek i5 liquid handling workstation (Beckman Coulter) for the formation of uniformly-sized organoid in 384-well plate. The plate was then incubated for 30 minutes at 37° C., and the medium was replaced using the liquid handing workstation. Medium was changed every two days for 4 days before adding the drugs (5 μM of NIH chemotherapeutic drugs in triplicates per drug).
On the day of measurement, medium was changed 2-12 hours before drug induction, based on the oxygen consumption of the microtissue (e.g., U87-MG spheroids are given 6 hours after media change before drugs are induced).
After applying the drugs, the plate was placed on the DynamiX bioanalyzer (Tissue Dynamics). Organoids positions were detected optically. Oxygen content was monitored at a predetermined rate of 1 to 10 seconds of measurement at each location (e.g. Matrigel®/U87-MG spheroids treated with a set of FDA-approved anticancer drugs to enable cancer research was measured via phosphorescence for 4 seconds/well). Each cycle takes between 10-120 minutes, dependent on sampling rate and well number (e.g., Matrigel®/U87-MG spheroids 384 well at a sampling rate of 4 measurements/well take about 60 minutes for each cycle). […]
Further validation was usually done by multiple independent repeats (e.g. Matrigel®/U87-MG spheroids treated with a set of FDA-approved anticancer drugs to enable cancer research [AOD IX] were assessed in 3 independent experiments). […]

Row | Structure (SMILES) | type of response in kinetic oxygen measurement (positive, false negative, false positive)
1 | CC(C)C[C@H](NC(=O)[C@H](Cc1ccccc1)NC(=O)c1cnccn1)B(O)O [Bortezomib] | positive
2 | Cc1c2oc3c(C)ccc(C(=O)N[C@@H]4C(=O)N[C@H](C(C)C)C(=O)N5CCC[C@H]5C(=O)N(C)CC(=O)N(C)[C@@H](C(C)C)C(=O)O[C@@H]4C)c3nc-2c(C(=O)N[C@@H]2C(=O)N[C@H](C(C)C)C(=O)N3CCC[C@H]3C(=O)N(C)CC(=O)N(C)[C@@H](C(C)C)C(=O)O[C@@H]2C)c(N)c1=O [Dactinomycin] (I: T[dV]P[Sar][NMeV] / II: T[dV]P[Sar][NMeV]; ester I:1-I:C, II:1-II:C; linker I:N-II:N via Actinocin(9to1)) | false positive
3 | COc1cccc2c1C(=O)c1c(O)c3c(c(O)c1C2=O)C[C@@](O)(C(C)=O)C[C@@H]3O[C@H]1C[C@H](N)[C@H](O)[C@H](C)O1 [Daunorubicin hydrochloride] | false negative
4 | Cc1c(C(=O)Nc2ccc(N3C[C@@H](C)O[C@@H](C)C3)nc2)cccc1-c1ccc(OC(F)(F)F)cc1 [Erismodegib] | false positive
5 | COC(=O)C[C@](O)(CCCC(C)(C)O)C(=O)O[C@@H]1C(OC)=C[C@]23CCCN2CCc2cc4c(cc2[C@H]13)OCO4 [Omacetaxine mepesuccinate] | positive
